Calls of active or inactive are those of the source. The rule behind the calls is not given here.
Experiments:
4T1 [1] = test: Antitumor activity against mouse 4T1 cells implanted in female BALB/c mouse at 10 mg/kg, iv administered upto 5 days; format: functional, organism-based; settings: time <= 5.0 day
MDA-MB-468 [2] = test: Antiproliferative activity against human MDA-MB-468 cells assessed as cell viability at 10 nM incubated for 48 hrs by MTT assay; format: functional, cell-based
MDA-MB-468 [3] = test: Induction of apoptosis in human MDA-MB-468 cells assessed as increase in cleaved caspase 3 level at 25 nM measured after 48 hrs by Western blot analysis; format: functional, cell-based
[4] = Toxicity in female BALB/c mouse implanted with mouse 4T1 cells assessed as spleen lesion at 10 mg/kg, iv; format: organism-based; settings: in vivo
MDA-MB-468 [5] = test: Inhibition of cell migration in human MDA-MB-468 cells assessed as decrease in cell migration at 25 nM incubated for 48 hrs by wound healing assay; format: functional, cell-based
4T1 [6] = test: Antitumor activity against mouse 4T1 cells implanted in female BALB/c mouse assessed as increase in 4-HNE level in tumor at 10 mg/kg, iv administered upto 5 days by Western blot analysis; format: functional, organism-based; settings: time <= 5.0 day
4T1 [7] = test: Antitumor activity against mouse 4T1 cells implanted in female BALB/c mouse assessed as increase in phospho eIF2alpha level in tumor at 10 mg/kg, iv administered upto 5 days by Western blot analysis; format: functional, organism-based; settings: time <= 5.0 day
[8] = Toxicity in female BALB/c mouse implanted with mouse 4T1 cells assessed as heart damage at 10 mg/kg, iv; format: organism-based; settings: in vivo
HEK293 = test: Antiproliferative activity against human HEK293 cells assessed as cell viability at 10 nM incubated for 48 hrs by MTT assay; format: toxicity, cell-based; settings: hek293, 48 h, 0.01 µM
[9] = Toxicity in female BALB/c mouse implanted with mouse 4T1 cells assessed as liver damage at 10 mg/kg, iv; format: organism-based; settings: in vivo
4T1 [10] = test: Antitumor immunity against mouse 4T1 cells implanted in female BALB/c mouse model assessed as increase in ratio of CD8+ T cells to CD4+ T cells at 10 mg/kg, iv administered upto 5 days by flow cytometry analysis; format: functional, organism-based; settings: time <= 5.0 day
MDA-MB-468 [11] = test: Induction of apoptosis in human MDA-MB-468 cells assessed as increase in activation of caspase at 25 nM by Western blot analysis; format: functional, cell-based; settings: time 24.0 hrs
MDA-MB-468 [12] = test: Induction of apoptosis in human MDA-MB-468 cells assessed as increase in cleaved PARP level at 25 nM measured after 48 hrs by Western blot analysis; format: functional, cell-based
[13] = Toxicity in female BALB/c mouse implanted with mouse 4T1 cells assessed as heart abnormality at 10 mg/kg, iv; format: organism-based; settings: in vivo
4T1 [14] = test: Antitumor activity against mouse 4T1 cells implanted in female BALB/c mouse model assessed as increase in TNF-alpha expression in tumor at 10 mg/kg, iv administered upto 5 days; format: functional, organism-based; settings: time <= 5.0 day
[15] = Toxicity in female BALB/c mouse implanted with mouse 4T1 cells assessed as kidney abnormality at 10 mg/kg, iv; format: organism-based; settings: in vivo
MDA-MB-468 [16] = test: Induction of ROS production in human MDA-MB-468 cells assessed as increase in ROS level at 25 nM incubated for 6 hrs by DCFH-DA staining based confocal microscopic analysis; format: functional, cell-based
MDA-MB-468 [17] = test: Induction of endoplasmic reticulum (ER) stress-mediated apoptosis in human MDA-MB-468 cells assessed as increase in CHOP expression at 25 nM measured at 2 hrs by Western blot analysis; format: functional, cell-based
MDA-MB-468 [18] = test: Induction of ROS production in human MDA-MB-468 cells assessed as increase in fluorescent signal at 25 nM incubated for 6 hrs in presence of N-acetyl cysteine by DCFH-DA staining based flow cytometry analysis; format: functional, cell-based
[19] = Toxicity in female BALB/c mouse implanted with mouse 4T1 cells assessed as kidney damage at 10 mg/kg, iv; format: organism-based; settings: in vivo
[20] = Toxicity in female BALB/c mouse implanted with mouse 4T1 cells assessed as kidney inflammation at 10 mg/kg, iv; format: organism-based; settings: in vivo
[21] = Toxicity in female BALB/c mouse implanted with mouse 4T1 cells assessed as liver inflammation at 10 mg/kg, iv; format: organism-based; settings: in vivo
[22] = Toxicity in female BALB/c mouse implanted with mouse 4T1 cells assessed as kidney lesion at 10 mg/kg, iv; format: organism-based; settings: in vivo
4T1 [23] = test: Antitumor activity against mouse 4T1 cells implanted in female BALB/c mouse assessed as induction of intracellular ROS accumulation in tumor at 10 mg/kg, iv administered upto 5 days; format: functional, organism-based; settings: time <= 5.0 day
[24] = Toxicity in female BALB/c mouse implanted with mouse 4T1 cells assessed as spleen abnormality at 10 mg/kg, iv; format: organism-based; settings: in vivo
MDA-MB-468 [25] = test: Induction of endoplasmic reticulum (ER) stress-mediated apoptosis in human MDA-MB-468 cells assessed as increase in ATF4 expression at 25 nM measured at 2 hrs by Western blot analysis; format: functional, cell-based
[26] = Toxicity in female BALB/c mouse implanted with mouse 4T1 cells assessed as spleen damage at 10 mg/kg, iv; format: organism-based; settings: in vivo
[27] = Toxicity in female BALB/c mouse implanted with mouse 4T1 cells assessed as liver abnormality at 10 mg/kg, iv; format: organism-based; settings: in vivo
Cisplatin-resistant 4T1 = test: Antitumor activity against mouse Cisplatin-resistant 4T1 cells implanted in female BALB/c mouse assessed as increase in 4-HNE level at 10 mg/kg, ip; format: functional, organism-based
4T1 [28] = test: Antitumor activity against mouse 4T1 cells implanted in female BALB/c mouse model assessed as reduction in proportion of CD11b+ IL-6+ cells in tumor at 10 mg/kg, iv administered upto 5 days; format: functional, organism-based; settings: time <= 5.0 day

With `CCCCCCC[C@@H]1CC(=O)N[C@H](Cc2ccccc2)C(=O)N[C@H]2CSSC[C@H](NC2=O)C(=O)O1` the Activity (4T1 [1]) was “Active”, the Activity (MDA-MB-468 [2]) was “Active” and the Activity (MDA-MB-468 [3]) was “Active”. The Activity [4] was “Non-toxic”, the inhibition (MDA-MB-468 [5]) was “Active” and the Activity (4T1 [6]) was “Active”. The Activity (4T1 [7]) was “Active”, the Activity [8] was “Non-toxic” and the Activity (HEK293) was “Non-toxic”. For the same molecule, the Activity [9] was “Non-toxic”, the Activity (4T1 [10]) was “Active” and the Activity (MDA-MB-468 [11]) was “Time-dependent-effect”. For the same molecule, the Activity (MDA-MB-468 [12]) was “Active”, the Activity [13] was “Non-toxic” and the Activity (4T1 [14]) was “Active”. For the same molecule, the Activity [15] was “Non-toxic”, the Activity (MDA-MB-468 [16]) was “Active” and the Activity (MDA-MB-468 [17]) was “Active”. For the same molecule, the Activity (MDA-MB-468 [18]) was “Active”, the Activity [19] was “Non-toxic” and the Activity [20] was “Non-toxic”. The Activity [21] was “Non-toxic”, the Activity [22] was “Non-toxic” and the Activity (4T1 [23]) was “Active”. The Activity [24] was “Non-toxic”, the Activity (MDA-MB-468 [25]) was “Active” and the Activity [26] was “Non-toxic”. The Activity [27] was “Non-toxic”, the Activity (Cisplatin-resistant 4T1) was “Active” and the Activity (4T1 [28]) was “Active”.

From ChEMBL document CHEMBL6078706, “Deciphering the Comprehensive Structure-Activity Relationship of Sunshinamide for Breast Cancer Therapy through Dual Modulation of Apoptotic and Ferroptotic Pathways via TrxR1 and Gpx4 Inhibition” (J Med Chem, 2024)
